The record followed here is patent US9181223B2, “2-aminopyrimidin-6-ones and analogs exhibiting anti-cancer and anti-proliferative activities” (Deciphera Pharmaceuticals, LLC, priority 2013, dated 2015).

Where only a bound is given, the exact number is not on record here.

One experiment deals with osteoclast precursors. Kind of experiment: Osteoclast tartrate-resistant acid phosphatase assay. The conditions noted are these: tartrate-resistant acid phosphatase activity, RANKL and M-CSF, 7-14 days. The class given is cell-based. The protocol:
Osteoclast Tartrate-Resistant Acid Phosphatase Assay
A serial dilution of test compound was dispensed into a 384-well black clear bottom plate (Nalge Nunc International, Rochester, N.Y.). Compound was diluted by the addition of DMEM media supplemented with 10% characterized fetal bovine serum (Invitrogen, Carlsbad, Calif.). Diluted compound was transferred to a 384-well black clear bottom plate. Two-thousand five hundred osteoclast precursors (Lonza, Walkersville, Md.) were added per well in growth media containing Receptor Activator of Nuclear Factor Kappa-beta ligand (RANKL) and M-CSF (R&D Systems, Minneapolis, Minn.). Plates were incubated for 7-14 days at 37 degrees Celsius, 5% CO2, and 95% humidity to allow differentiation of osteoclast precursors. At the end of the incubation period, 10 μL of supernatant from each well was transferred to a clear 384-well plate. Tartrate-resistant acid phosphatase activity in the supernatant samples was determined using an acid phosphatase assay kit (Sigma, St. Louis, Mo.). Absorbance was measured at 550 nm using a plate reader. Data was analyzed using Prism software (Graphpad, San Diego, Calif.) to calculate IC50 values.

The target in experiment [1] is T1, unphosphorylated c-KIT kinase (uKIT, Seq. ID no. 2) (Homo sapiens, UniProt P10721).
T1 construct: uKit with N-terminal GST fusion used for screening
T1 sequence (P10721 with tags, fused parts or gaps): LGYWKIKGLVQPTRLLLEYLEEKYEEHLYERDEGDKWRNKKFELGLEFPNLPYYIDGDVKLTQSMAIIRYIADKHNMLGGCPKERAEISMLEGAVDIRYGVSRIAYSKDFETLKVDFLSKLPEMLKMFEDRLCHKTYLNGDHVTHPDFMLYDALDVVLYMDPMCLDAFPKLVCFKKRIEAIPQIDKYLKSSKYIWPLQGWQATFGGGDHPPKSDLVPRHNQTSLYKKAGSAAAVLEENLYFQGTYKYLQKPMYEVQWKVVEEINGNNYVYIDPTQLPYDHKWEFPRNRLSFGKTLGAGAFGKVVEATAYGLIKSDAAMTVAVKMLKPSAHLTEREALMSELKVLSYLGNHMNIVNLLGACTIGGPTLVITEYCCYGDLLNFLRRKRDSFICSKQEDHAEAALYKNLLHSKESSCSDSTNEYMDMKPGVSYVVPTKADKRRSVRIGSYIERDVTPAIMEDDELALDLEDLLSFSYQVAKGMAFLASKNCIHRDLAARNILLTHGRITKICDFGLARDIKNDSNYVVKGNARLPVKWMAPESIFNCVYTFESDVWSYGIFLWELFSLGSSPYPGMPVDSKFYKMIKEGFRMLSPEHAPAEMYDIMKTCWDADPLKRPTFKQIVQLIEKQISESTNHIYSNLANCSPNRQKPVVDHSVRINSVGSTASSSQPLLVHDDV
Kind of experiment: uKit kinase assay (ADP production coupled to pyruvate kinase/lactate dehydrogenase). The class given is biochemical. The note with it: enzymatic assay, ATP 2000 μM; read-out: uKIT. The protocol:
In this assay, the oxidation of NADH (thus the decrease at A340 nm) was continuously monitored spectrophometrically. […] The inhibition reaction was started by mixing serial diluted test compound with the above reaction mixture. The absorption at 340 nm was monitored continuously for 4 hours at 30° C. on Synergy 2 plate reader (BioTech).

Another experiment concerns M-NFS-60 cells. Description: M-NFS-60 cell proliferation assay (resazurin). The class given is cell-based. The conditions noted are these: 67 h incubation. The procedure:
M-NFS-60 cells (catalog #CRL-1838) were obtained from the American Type Culture Collection (ATCC, Manassas, Va.). Briefly, cells were grown in suspension in RPMI 1640 medium supplemented with 10% characterized fetal bovine serum (Invitrogen, Carlsbad, Calif.), 0.05 mM 2-mercaptoethanol, and 20 ng/mL mouse recombinant macrophage colony stimulating factor (M-CSF) at 37° C., 5% CO2, and 95% humidity. Cells were allowed to expand until reaching saturation at which point they were subcultured or harvested for assay use.
M-NFS-60 Cell Proliferation Assay
A serial dilution of test compound was dispensed into a 384-well black clear bottom plate (Corning, Corning, N.Y.). Two thousand five hundred cells were added per well in 50 μL complete growth medium. Plates were incubated for 67 h at 37° C., 5% CO2, and 95% humidity. At the end of the incubation period 10 μL of a 440 µM solution of resazurin (Sigma, St. Louis, Mo.) in PBS was added to each well and incubated for an additional 5 h at 37° C., 5% CO2, and 95% humidity. Plates were read on a Synergy2 reader (Biotek, Winooski, Vt.) using an excitation of 540 nm and an emission of 600 nm. IC50 values were calculated from a series of percent inhibition values determined at a range of inhibitor concentrations using software routines as implemented in the GraphPad Prism software package.
For orientation: Alamar Blue is a resazurin reagent that responds to reducing activity.

In experiment [2] the target is T2, unphosphorylated PDGFRβ kinase (uPDGFRβ, Seq. ID No. 3) (Homo sapiens, UniProt P09619).
T2 construct: purchased DeCode
T2 sequence (P09619 557-1106): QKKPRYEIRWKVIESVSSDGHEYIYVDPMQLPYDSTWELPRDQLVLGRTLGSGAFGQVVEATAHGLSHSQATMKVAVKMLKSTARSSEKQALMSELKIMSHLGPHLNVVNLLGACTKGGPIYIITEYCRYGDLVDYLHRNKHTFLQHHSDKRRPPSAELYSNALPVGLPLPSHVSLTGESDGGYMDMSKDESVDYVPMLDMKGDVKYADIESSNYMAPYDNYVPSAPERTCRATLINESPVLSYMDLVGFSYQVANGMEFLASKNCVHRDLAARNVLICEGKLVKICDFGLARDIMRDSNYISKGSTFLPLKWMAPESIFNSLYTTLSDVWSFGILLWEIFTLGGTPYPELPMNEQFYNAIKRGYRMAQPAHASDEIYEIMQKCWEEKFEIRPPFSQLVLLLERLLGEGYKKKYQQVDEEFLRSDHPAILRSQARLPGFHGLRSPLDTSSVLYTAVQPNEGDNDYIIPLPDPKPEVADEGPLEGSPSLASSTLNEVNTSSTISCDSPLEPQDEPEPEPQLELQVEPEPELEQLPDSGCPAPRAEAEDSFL
Kind of experiment: uPDGFRβ kinase assay (ADP production coupled to pyruvate kinase/lactate dehydrogenase). The class given is biochemical. The conditions noted are these: enzymatic assay, ATP 500 μM. The protocol:
Unphosphorylated […]β) Kinase (Seq. ID No. 3) Assay Activity of unphosphorylated PDGFRβ kinase ([…] No. 3) was determined by following the production of ADP from the kinase reaction with ATP and poly E4Y as substrates through coupling with the pyruvate kinase/lactate dehydrogenase system (e.g., Schindler et al. Science (2000) 289: 1938-1942). In this assay, the oxidation of NADH (thus the decrease at A340 nm) was continuously monitored spectrophometrically. The reaction mixture (100 μL) contained PDGFRβ (DeCode, 15.7 nM), polyE4Y (2.5 mg/mL), MgCl2 (10 mM), pyruvate kinase (4 units), lactate dehydrogenase (0.7 units), phosphoenol pyruvate (1 mM) and NADH (0.28 mM) and ATP (500 μM) in a 90 mM Tris buffer containing 0.2% octyl-glucoside and 1% DMSO, at pH 7.5. The inhibition reaction was started by mixing serial diluted test compound with the above reaction mixture. The absorption at 340 nm was monitored continuously for 4 h at 30° C. on a Polarstar Optima or Synergy 2 plate reader. The reaction rate was calculated using the 1.5 to 2.5 h time frame. Percent inhibition was obtained by comparison of reaction rate with that of a control (i.e. with no test compound). IC50 values were calculated from a series of percent inhibition values determined at a range of inhibitor concentrations using software routines as implemented in the GraphPad Prism software package.

The target of experiment [3] is T3, phospho-FMS in THP-1 cells (Homo sapiens, UniProt P07333).
T3 construct: endogenous in cells; host or cells: THP-1 (ATCC TIB-202)
T3 sequence (P07333 20-972): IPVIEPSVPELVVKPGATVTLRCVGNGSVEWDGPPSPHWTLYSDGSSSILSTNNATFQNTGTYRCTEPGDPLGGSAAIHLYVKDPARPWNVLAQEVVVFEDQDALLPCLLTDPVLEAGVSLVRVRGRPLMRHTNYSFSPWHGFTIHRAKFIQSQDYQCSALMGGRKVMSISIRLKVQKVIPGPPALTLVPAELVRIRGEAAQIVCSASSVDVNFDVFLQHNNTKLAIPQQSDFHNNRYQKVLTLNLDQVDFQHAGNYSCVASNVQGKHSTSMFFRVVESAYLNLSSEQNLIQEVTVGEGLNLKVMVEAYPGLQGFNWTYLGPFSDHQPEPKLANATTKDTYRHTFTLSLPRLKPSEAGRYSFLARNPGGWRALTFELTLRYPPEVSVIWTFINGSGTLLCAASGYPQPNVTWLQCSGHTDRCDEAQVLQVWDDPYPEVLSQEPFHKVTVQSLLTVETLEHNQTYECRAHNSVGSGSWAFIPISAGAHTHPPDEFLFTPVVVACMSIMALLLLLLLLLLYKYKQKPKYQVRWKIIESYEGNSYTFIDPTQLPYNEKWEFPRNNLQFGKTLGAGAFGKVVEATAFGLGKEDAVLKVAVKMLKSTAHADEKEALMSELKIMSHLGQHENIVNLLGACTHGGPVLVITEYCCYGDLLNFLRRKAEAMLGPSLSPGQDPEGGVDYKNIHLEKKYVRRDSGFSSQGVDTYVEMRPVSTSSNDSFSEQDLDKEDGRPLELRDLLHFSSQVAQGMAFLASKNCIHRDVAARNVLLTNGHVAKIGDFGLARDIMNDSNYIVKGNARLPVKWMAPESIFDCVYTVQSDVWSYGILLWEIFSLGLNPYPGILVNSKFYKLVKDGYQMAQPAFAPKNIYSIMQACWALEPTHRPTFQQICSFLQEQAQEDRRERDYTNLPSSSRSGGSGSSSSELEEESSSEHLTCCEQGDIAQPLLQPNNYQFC
Description: Phospho-FMS ELISA assay in THP-1 cells. The format is cell-based. The conditions noted are these: 4 hours compound, M-CSF stimulation 5 minutes, read-out: pFMS inhibition in THP-1 cells. The procedure:
Cells were allowed to expand until reaching 70-95% confluency at which point they were subcultured or harvested for assay use.
In a separate 96 well black clear bottom plate, one hundred and fifty thousand THP-1 cells were added per well in 100 μL in assay medium. Fifty microliters of diluted compound was then added to the cells. Plates were incubated for 4 hours at 37 degrees Celsius, 5% CO2, 95% humidity. […] Lysates were prepared and used to perform the phospho-FMS ELISA as described by the manufacturer (catalog #DYC3268, R & D Systems, Minneapolis, Minn.). GraphPad Prism was used to calculate IC50 values obtained from data generated from the ELISA assay.

In experiment [4] the target is T4, unphosphorylated c-FMS kinase (uFMS, Seq. ID no. 1) (Homo sapiens, UniProt P07333).
T4 construct: purchased Millipore
T4 sequence (P07333 538-972): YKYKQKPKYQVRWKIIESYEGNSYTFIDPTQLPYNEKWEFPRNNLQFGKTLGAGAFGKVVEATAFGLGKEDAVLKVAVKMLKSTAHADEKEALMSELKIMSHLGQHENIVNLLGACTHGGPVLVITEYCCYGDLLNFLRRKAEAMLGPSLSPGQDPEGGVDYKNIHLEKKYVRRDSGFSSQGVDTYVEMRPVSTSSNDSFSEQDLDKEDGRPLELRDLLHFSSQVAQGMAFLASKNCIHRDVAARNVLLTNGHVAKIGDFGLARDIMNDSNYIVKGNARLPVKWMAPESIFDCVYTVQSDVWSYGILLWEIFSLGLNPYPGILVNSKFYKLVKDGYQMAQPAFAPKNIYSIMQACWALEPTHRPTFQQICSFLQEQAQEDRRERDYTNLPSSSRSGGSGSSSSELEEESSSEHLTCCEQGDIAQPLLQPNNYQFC
Description: uFMS kinase assay (ADP production coupled to pyruvate kinase/lactate dehydrogenase). The note with it: enzymatic assay, ATP 500 μM. The format is biochemical. The procedure: uFMS Kinase (Seq. ID No. 1) Assay
In this assay, the oxidation of NADH (thus the decrease at A340 nm) was continuously monitored spectrophometrically. The reaction mixture (100 μL) contained FMS (purchased from Millipore) (10 nM), polyE4Y (1 mg/mL), MgCl2 (10 mM), pyruvate kinase (4 units), lactate dehydrogenase (0.7 units), phosphoenol pyruvate (1 mM), NADH (0.28 mM) and ATP (500 μM) in 90 mM Tris buffer containing 0.2% octyl-glucoside and 1% DMSO, pH 7.5. The inhibition reaction was started by mixing serial diluted test compound with the above reaction mixture. The absorption at 340 nm was monitored continuously for 4 hours at 30° C. on Synergy 2 plate reader. The reaction rate was calculated using the 3 to 4 h time frame. Percent inhibition was obtained by comparison of reaction rate with that of a control (i.e. in the absence of test compound). IC50 values were calculated from a series of percent inhibition values determined at a range of inhibitor concentrations using software routines as implemented in the GraphPad Prism software package.

In the case of `COCCNc1ncc(-c2ccc(Oc3ccnc(-c4cnn(C)c4)c3)c(C)n2)c(=O)[nH]1` [Example 6, 2-((2-methoxyethyl)amino)-5-(6-methyl-5-((2-(1-methyl-1H-pyrazol-4-yl)pyridin-4-yl)oxy)pyridin-2-yl)pyrimidin-4(3H)-one], the IC50 is 10 to 100 nM with osteoclast precursors, 100 to 1000 nM in experiment [1], 100 to 1000 nM with M-NFS-60 cells and greater than 1000 nM in experiment [2].
For the compound `Cc1nc(-c2cnc(N3CCCC3)n(C)c2=O)ccc1Oc1ccnc(-c2cnn(C)c2)c1` [Example 16, 3-methyl-5-(6-methyl-5-((2-(1-methyl-1H-pyrazol-4-yl)pyridin-4-yl)oxy)pyridin-2-yl)-2-(pyrrolidin-1-yl)pyrimidin-4(3H)-one], the IC50 in the experiment with osteoclast precursors is less than 10 nM; in experiment [1], greater than 1000 nM; in the experiment on M-NFS-60 cells, less than 10 nM; in experiment [2] it was 100 to 1000 nM.
With `Cc1cc(-c2cnc(NC(C)C)[nH]c2=O)ncc1Oc1ccnc(-c2cnn(C)c2)c1` [Example 18, 2-(isopropylamino)-5-(4-methyl-5-((2-(1-methyl-1H-pyrazol-4-yl)pyridin-4-yl)oxy)pyridin-2-yl)pyrimidin-4(3H)-one], the IC50 in the experiment with osteoclast precursors was less than 10 nM; in experiment [1], 10 to 100 nM; in the experiment with M-NFS-60 cells, less than 10 nM; in experiment [2], 10 to 100 nM.
Take `COC[C@@H](C)Nc1ncc(-c2ccc(Oc3ccnc(-c4cnn(C)c4)c3)c(C)n2)c(=O)[nH]1` [Example 22, (R)-2-((1-methoxypropan-2-yl)amino)-5-(6-methyl-5-((2-(1-methyl-1H-pyrazol-4-yl)pyridin-4-yl)oxy)pyridin-2-yl)pyrimidin-4(3H)-one]: the IC50 in the experiment on osteoclast precursors was less than 10 nM; in experiment [3], 100 to 1000 nM; in experiment [4], 10 to 100 nM; in experiment [1] it was greater than 1000 nM; with M-NFS-60 cells, 10 to 100 nM; in experiment [2], greater than 1000 nM.
On to `COC[C@H]1CCCN1c1ncc(-c2ccc(Oc3ccnc(-c4cnn(C)c4)c3)c(C)n2)c(=O)[nH]1` [Example 23, (R)-2-(2-(methoxymethyl)pyrrolidin-1-yl)-5-(6-methyl-5-((2-(1-methyl-1H-pyrazol-4-yl)pyridin-4-yl)oxy)pyridin-2-yl)pyrimidin-4(3H)-one], for which the IC50 in the experiment with osteoclast precursors was 10 to 100 nM; in experiment [4], 10 to 100 nM; in experiment [1] it was greater than 1000 nM; in the experiment with M-NFS-60 cells it was 10 to 100 nM; in experiment [2] it was greater than 1000 nM.
Regarding `Cc1nc(-c2cnc(N3CC[C@H](N(C)C)C3)[nH]c2=O)ccc1Oc1ccnc(-c2cnn(C)c2)c1` [Example 24, (S)-2-(3-(dimethylamino)pyrrolidin-1-yl)-5-(6-methyl-5-((2-(1-methyl-1H-pyrazol-4-yl)pyridin-4-yl)oxy)pyridin-2-yl)pyrimidin-4(3H)-one], the IC50 in the experiment with osteoclast precursors is 100 to 1000 nM; in experiment [4], 100 to 1000 nM; in experiment [1], greater than 1000 nM; in the experiment with M-NFS-60 cells, 100 to 1000 nM; in experiment [2], greater than 1000 nM.
Take `CCNc1ncc(-c2ccc(Oc3ccnc(-c4cnn(C)c4)c3)c(C)n2)c(=O)n1C` [Example 25, 2-(ethylamino)-3-methyl-5-(6-methyl-5-((2-(1-methyl-1H-pyrazol-4-yl)pyridin-4-yl)oxy)pyridin-2-yl)pyrimidin-4(3H)-one]: the IC50 was 10 to 100 nM with osteoclast precursors; 10 to 100 nM in experiment [3]; 10 to 100 nM in experiment [4]; 100 to 1000 nM in experiment [1]; 10 to 100 nM with M-NFS-60 cells; greater than 1000 nM in experiment [2].
Consider `COCCNc1ncc(-c2ccc(Oc3ccnc(-c4cnn(C)c4)c3)c(C)n2)c(=O)n1C` [Example 26, 2-((2-methoxyethyl)amino)-3-methyl-5-(6-methyl-5-((2-(1-methyl-1H-pyrazol-4-yl)pyridin-4-yl)oxy)pyridin-2-yl)pyrimidin-4(3H)-one], for which the IC50 was 10 to 100 nM in the experiment on osteoclast precursors, greater than 1000 nM in experiment [1], 10 to 100 nM in the experiment with M-NFS-60 cells and greater than 1000 nM in experiment [2].
With `Cc1nc(-c2cnc(NC(C)(C)C)[nH]c2=O)ccc1Oc1ccnc(-c2cnn(C)c2)c1` [Example 28, 2-(tert-butylamino)-5-(6-methyl-5-((2-(1-methyl-1H-pyrazol-4-yl)pyridin-4-yl)oxy)pyridin-2-yl)pyrimidin-4(3H)-one], the IC50 in the experiment with osteoclast precursors was 10 to 100 nM; in experiment [3], 10 to 100 nM; in experiment [4] it was less than 10 nM; in experiment [1] it was 10 to 100 nM; in the experiment with M-NFS-60 cells, 10 to 100 nM; in experiment [2], 10 to 100 nM.
Turning to `Cc1nc(-c2cnc(NCC(C)(C)C)[nH]c2=O)ccc1Oc1ccnc(-c2cnn(C)c2)c1` [Example 29, 5-(6-methyl-5-((2-(1-methyl-1H-pyrazol-4-yl)pyridin-4-yl)oxy)pyridin-2-yl)-2-(neopentylamino)pyrimidin-4(3H)-one], the IC50 with osteoclast precursors was 10 to 100 nM; in experiment [3] it was 10 to 100 nM; in experiment [4] it was less than 10 nM; in experiment [1], 10 to 100 nM; with M-NFS-60 cells, 10 to 100 nM; in experiment [2], 100 to 1000 nM.
